≈ marks a conversion by molar mass, not a printed value.
Tested on: Mycobacterium tuberculosis variant bovis BCG
Test: microbe, parasite or virus in culture
Assay type: functional

| Structure (SMILES) | MIC90 [µM] |
| --- | --- |
| COc1ccc(CCNc2cc(-c3ccccc3)nc3ncnn23)cc1 | 1 (≈ 0.345 µg/mL) |
| COc1ccc(-c2cc(NC(=O)c3ccc(F)cc3Cl)ccc2OC)cc1 | 8.2 (≈ 3.16 µg/mL) |
| CCc1cc(=O)[nH]c(-n2nc(C)cc2NC(=O)c2cc3ccccc3o2)n1 | 3.8 (≈ 1.38 µg/mL) |
| O=C(Nc1nc(-c2cccnc2)cs1)c1ccc(Br)s1 | 1.4 (≈ 0.513 µg/mL) |
| O=C(N[C@@H](Cc1ccccc1)C(=O)Nc1ccccc1N1CCOCC1)c1cccs1 | 3.2 (≈ 1.39 µg/mL) |
| CCN(Cc1ccc2c(c1)OCO2)C(=O)CSc1nc(NC)c2ccccc2n1 | 3.3 (≈ 1.35 µg/mL) |
| Cc1cc(Oc2cccc3[nH]ccc23)nc(N2CCNCC2)n1 | 6.2 (≈ 1.92 µg/mL) |
| O=C(NNC(=O)C1CC1C(=O)O)c1ccncc1 (configuration not stated) | 6.8 (≈ 1.69 µg/mL) |
| O=S(=O)(c1ccc(Cl)cc1)N1CCC(n2nnc3cc(C(F)(F)F)ccc32)CC1 | 7.8 (≈ 3.47 µg/mL) |
| Cc1n[nH]c(C)c1S(=O)(=O)NCc1nc(NCCCc2ccccc2)c2ccccc2n1 | 5.9 (≈ 2.66 µg/mL) |
| O=C(Nc1nc(-c2ccccn2)cs1)c1ccc(-n2cccn2)cc1 | 0.7 (≈ 0.243 µg/mL) |
| CN1CCc2c(cccc2NC(=O)c2cc(Br)cc3c2OCC3)C1 | 9.8 (≈ 3.8 µg/mL) |
| O=C(Nc1nnc(-c2ccc(F)cc2)o1)c1ccc(C(F)(F)F)cc1 | 6 (≈ 2.11 µg/mL) |
| COc1cc(OC)c(C(=O)Nc2cccc3c2CCN(C)C3C)cc1Br (configuration not stated) | 5.5 (≈ 2.31 µg/mL) |
| CSc1cccc(C(=O)Nc2nc(-c3ccccn3)cs2)c1 | 4.6 (≈ 1.51 µg/mL) |
| Cc1ccc(-c2ccc(SCC(=O)Nc3nonc3C)nn2)cc1 | 6.8 (≈ 2.32 µg/mL) |
| CN(CCOc1cccc(-c2ccc(C(=O)N3CCCC3)cc2)c1)Cc1ccc(F)cc1 | 7.8 (≈ 3.37 µg/mL) |
| Cc1ccc2c(CC(=O)Nc3nc(-c4ccccn4)cs3)coc2c1 | 10 (≈ 3.49 µg/mL) |
| Fc1cccc(Sc2nccc(N3CCNCC3)n2)c1 | 6 (≈ 1.74 µg/mL) |
| N=c1n(CCC2CCCCC2)nnn1Cc1ccccc1 | 6.1 (≈ 1.74 µg/mL) |
| O=C(Nc1nc(-c2ccccn2)cs1)c1cccc(S(=O)(=O)N2CCCCC2)c1 | 5.2 (≈ 2.23 µg/mL) |

| Structure (SMILES) | MIC90 [µM] |
| --- | --- |
| Brc1c(-c2ccc3c(c2)OCO3)nc2ncccn12 | 2.4 (≈ 0.764 µg/mL) |
| CCc1ccc(S(=O)(=O)Nc2cc(CN3CCN(CC4CC4)CC3)ccc2C)cc1 | 9.6 (≈ 4.11 µg/mL) |
| O=C(NCc1ccccc1F)N1CCN(Cc2ccc(Br)s2)CC1 | 9.4 (≈ 3.88 µg/mL) |
| Cc1ccc(N2CCN(CCOc3cccc(-c4ccc(C(=O)N5CCCC5)cc4)c3)CC2)cc1C | 2.4 (≈ 1.16 µg/mL) |
| O=C(Nc1nc(-c2ccccn2)cs1)c1cc2ccccc2o1 | 7 (≈ 2.25 µg/mL) |
| N#Cc1cc(C(=O)COc2ccc(CC3SC(=O)NC3=O)cc2)ccc1N (configuration not stated) | 1.1 (≈ 0.42 µg/mL) |
| CCOc1ccc(C=C(C(=O)NCc2ccc(F)cc2)c2nc3ccccc3[nH]2)cc1 | 6.1 (≈ 2.53 µg/mL) |
| O=C(CCCSc1ccccc1)NNC(=O)c1cccs1 | 3.6 (≈ 1.15 µg/mL) |
| COc1ccc(-c2ccc(Nc3cccc(S(=O)(=O)CCNCCc4cccs4)c3)nc2)cn1 | 7.2 (≈ 3.56 µg/mL) |
| CN(Cc1nc2ccccc2s1)C(=O)c1cccc(NC(=O)c2cccs2)c1 | 1.4 (≈ 0.571 µg/mL) |
| O=C(Nc1ccc(C(=O)Nc2cccc(C3=NCCN3)c2)cc1)Nc1ccc(C2=NCCN2)cc1 | 4.6 (≈ 2.15 µg/mL) |
| Cc1n[nH]c(C)c1S(=O)(=O)Nc1ccc2c[nH]nc2c1 | 6.2 (≈ 1.81 µg/mL) |
| CC1(C)NC(N)=NC(=N)N1OCCCOc1ccc2ccccc2c1 | 9.5 (≈ 3.24 µg/mL) |
| Cc1cccc(CC(=N)NCCOc2cccc(Cl)c2)c1 | 5.5 (≈ 1.67 µg/mL) |
| O=C(COc1ccc(-c2ccccc2)cc1)NNC(=O)c1ccncc1 | 5.7 (≈ 1.98 µg/mL) |
| O=C(Nc1nc(-c2ccccn2)cs1)c1ccc(Br)o1 | 3.5 (≈ 1.23 µg/mL) |
| CN(Cc1nc2ccccc2s1)C(=O)c1cccc(NC(=O)c2ccncc2)c1 | 1.7 (≈ 0.684 µg/mL) |
| O=C(Nc1nnc(-c2ccc(Br)cc2)o1)c1cccc(F)c1 | 2.2 (≈ 0.797 µg/mL) |
| O=c1oc(-c2ccccc2F)nc2scc(-c3ccccc3)c12 | 4 (≈ 1.29 µg/mL) |
| O=C(Nc1nnc(-c2ccc(Cl)s2)o1)c1ccc(Br)s1 | 3 (≈ 1.17 µg/mL) |
| Cc1ccc2nc(SCC(=O)N(C(C)C)C(C)C)[nH]c2c1 | 9.9 (≈ 3.02 µg/mL) |

| Structure (SMILES) | MIC90 [µM] |
| --- | --- |
| Cc1ccc(-c2nnc(C)c(N3CCCC3)n2)cc1 | 10 (≈ 2.54 µg/mL) |
| COc1ccc2nc(C)cc(OCC(=O)Nc3ccccc3OC)c2c1 | 1.4 (≈ 0.493 µg/mL) |
| COc1ccc(-c2cc(=O)c3cc(OCC(=O)OC(C)C)ccc3o2)cc1 | 6.2 (≈ 2.28 µg/mL) |
| Cc1cc(=O)[nH]c(-n2nc(C)cc2NC(=O)C2(c3ccc(Cl)cc3)CCCC2)n1 | 1.3 (≈ 0.535 µg/mL) |
| Brc1ccc(-c2noc(C3CCCNC3)n2)cc1 (configuration not stated) | 6.2 (≈ 1.91 µg/mL) |
| CCOc1ccccc1NC(=O)C(Cc1ccccc1)NC(=O)c1cccs1 (configuration not stated) | 9 (≈ 3.55 µg/mL) |
| COc1ccc(Nc2ccccc2N)cc1Cl | 2.3 (≈ 0.572 µg/mL) |
| O=C(Nc1nc(-c2ccccn2)cs1)c1cccc(Oc2ccccc2)c1 | 3.4 (≈ 1.27 µg/mL) |
| COc1ccc(CCC(=O)Nc2ccccc2Nc2ccc(OC)cc2)cc1 | 3.9 (≈ 1.47 µg/mL) |
| Cc1cc(C)n(-c2nc(O)cc(-c3ccccc3)n2)n1 | 2 (≈ 0.533 µg/mL) |
| CCOc1cc(OCC)c(C(=O)C(C)C)cc1C(=O)Nc1cccc2c1CCN(C)C2 | 9.6 (≈ 4.08 µg/mL) |
| Cc1csc2nc(Cc3ccc(C(=O)c4ccc(C(=O)OCc5ccccc5)cc4)cc3)oc(=O)c12 | 2.3 (≈ 1.14 µg/mL) |
| O=C(NNC(=O)c1cccs1)c1ccc(-c2cccc(C(F)(F)F)c2)o1 | 4.3 (≈ 1.64 µg/mL) |
| CC(C)CCN(c1ccc(C#N)c(Cl)c1)[C@H]1CCNC1 | 2 (≈ 0.584 µg/mL) |
| c1ccc2oc(CN3CCC4(CC3)OCCc3sccc34)cc2c1 | 2.8 (≈ 0.95 µg/mL) |
| O=C(C=Cc1cccs1)N1CCN(Cc2ccc3c(c2)OCO3)CC1 | 1.7 (≈ 0.606 µg/mL) |
| Fc1ccc2nc(Nc3nc(-c4ccccn4)cs3)sc2c1 | 1 (≈ 0.328 µg/mL) |
| Cc1ncc(C(=O)Nc2cccc(-c3cc(-c4c(Cl)cccc4Cl)no3)c2)c(-c2ccccc2)n1 | 1.2 (≈ 0.602 µg/mL) |
| NC(=O)c1cccc(-c2ccc(OCCCN3CC[C@@H](OCc4ccccc4)C3)cc2)c1 | 7.5 (≈ 3.23 µg/mL) |
| O=C(CCc1nc2ccccc2oc1=O)N[C@@H]1CCC(=O)N[C@H]1c1ccsc1 | 6.4 (≈ 2.54 µg/mL) |
| Cn1cc(NC(=O)c2cc(NC(=O)CNC(=N)N)cn2C)cc1C(=O)NCCC(=N)N [NETROPSIN CHLORIDE] | 3.6 |

| Structure (SMILES) | MIC90 [µM] |
| --- | --- |
| COc1ccc(CN2CCC3(CCc4ccccc43)CC2)cc1OCc1ccccc1 | 2.4 (≈ 0.993 µg/mL) |
| Cc1cc(NC(=O)c2cc(Br)ccc2Cl)n(-c2nc(C)c(C)c(=O)[nH]2)n1 | 5.3 (≈ 2.31 µg/mL) |
| Clc1ccc(Nc2nc(-c3ccccn3)cs2)nc1 | 1.2 (≈ 0.347 µg/mL) |
| CC1(C(=O)Nc2cccc3cccnc23)CCN1CC1CC1 (configuration not stated) | 4.6 (≈ 1.36 µg/mL) |
| Cc1cc(C)c2cc(CN(Cc3cccnc3)C(=O)c3ccccc3)c(Cl)nc2c1 | 8.8 (≈ 3.66 µg/mL) |
| CC1CCN(Cc2c(O)ccc3oc(-c4ccco4)cc(=O)c23)CC1 | 2.6 (≈ 0.882 µg/mL) |
| Nc1ccccc1NC1CCN(Cc2ccccc2)CC1 | 3.6 (≈ 1.01 µg/mL) |
| CCCCOc1ccc(C(=O)Nc2nnc(-c3ccccc3)o2)cc1 | 3.1 (≈ 1.05 µg/mL) |
| O=C(NNC(=O)c1cccs1)c1csc(COc2ccccc2Cl)n1 | 5.3 (≈ 2.09 µg/mL) |
| O=C1NN=C(c2ccc3c(c2)OCO3)N[C@H]1Cc1c[nH]c2ccccc12 | 6.2 (≈ 2.16 µg/mL) |
| Br.CC1(C)N=C(N)N=C(N)N1OCCc1ccc2ccccc2c1 | 8.8 |
| Cc1ccccc1CN1CCc2nc(N3CCN(c4ncccn4)CC3)ncc2C1 | 4 (≈ 1.61 µg/mL) |
| CC(=O)N1CCc2ccc(/C=C/C(=O)O)cc21 | 2.1 (≈ 0.486 µg/mL) |
| Cc1ccc2nc(C(F)(F)F)c(C(=O)NCc3ccco3)n2c1 | 4.9 (≈ 1.58 µg/mL) |
| COc1ccc(-c2ccc(Nc3cccc(S(=O)(=O)CCNCC4CC4)c3)nc2)cn1 | 5.6 (≈ 2.46 µg/mL) |
| CC(=O)NCCn1c(Sc2ccnc(N3CCN(c4ccncc4)CC3)n2)nnc1-c1ccco1 | 2.6 (≈ 1.28 µg/mL) |
| Cc1ccc2nc(NC(=O)c3cc(C)nc4c3c(C)nn4C(C)C)sc2c1 | 7.6 (≈ 2.88 µg/mL) |
| Cc1ccc2nc(C)c(-c3ccn(Cc4ccccc4)n3)n2c1 | 5.9 (≈ 1.78 µg/mL) |
| COc1ccc(-c2nsc(NC(=O)COc3ccc(C)cc3)n2)cc1OC | 4.7 (≈ 1.81 µg/mL) |

Reference: ChEMBL document CHEMBL2095176, “GSK Tuberculosis Screening Data”
